Data on 31 compounds can be found in ChEMBL document CHEMBL1137495, “Synthesis and TNF expression inhibitory properties of new thalidomide analogues derived via Heck cross coupling” (2007).

Active and inactive are the calls of the source. The rule behind the calls is not given here.

The test system of test [1] is Jurkat. The experiment in a line: Inhibition of TNF gene expression in FRT Jurkat TNF reporter cells at 100 uM. Type of test: functional. As to conditions: Homo sapiens.
Test [2] relates to Jurkat. The experiment in a line: Increase in cell death in human FRT Jurkat TNF reporter cell. Type of test: functional, cell-based.
For test [3], the system named is Jurkat. Kind of test: Increase in inhibition of TNF gene expression in FRT Jurkat TNF reporter cells after 30 hrs. Format: functional, cell-based. As to conditions: Homo sapiens.
The test system of test [4] is Jurkat. The experiment in a line: Inhibition of TNF gene expression in FRT-Jurkat TNF reporter cells at 1 uM. Format: functional. Conditions: Homo sapiens.
The subject of test [5] is Jurkat. Kind of test: Inhibition of TNF gene expression in FRT Jurkat TNF reporter cells at 10 uM. Type of test: functional. Conditions: Homo sapiens.
Test [6] deals with Jurkat. Kind of test: Viability of the FRT Jurkat TNF reporter cells at 1 uM. Format: functional, Homo sapiens.
The subject of test [7] is Jurkat. The experiment in a line: Increase in Cytotoxicity in human FRT Jurkat TNF reporter cell at 100 uM. Format: functional, cell-based.

Compound `O=C1C=C(c2cccc3c2C(=O)N(C2CCC(=O)NC2=O)C3=O)CCC1` (centres undefined) displayed an inhibition at 100 µM in test [1] of 38%.
Take `CCCCOC(=O)/C=C/c1cccc(N2C(=O)c3ccccc3C2=O)c1`: in test [1], the inhibition at 100 µM is 35%.
On to `COC(=O)/C=C/c1ccc(N2C(=O)c3ccccc3C2=O)cc1`, for which 100 µM produced 41% inhibition in test [1].
`O=C1CCC(N2C(=O)c3ccc(Br)cc3C2=O)C(=O)N1` (centres undefined) displayed an inhibition at 100 µM in test [1] of 35%.
The same measure, in the same setting: with `COC(=O)/C=C/c1ccc2c(c1)C(=O)N(C1CCC(=O)NC1=O)C2=O` (centres undefined) the figure was 39%.
Still for that read-out and setting: for `COC(=O)/C=C/c1ccccc1N1C(=O)c2ccccc2C1=O` the value was 48%.
In test [1], `CCCCOC(=O)/C=C/c1ccc2c(c1)C(=O)N(C1CCC(=O)NC1=O)C2=O` (centres undefined) showed an inhibition at 100 µM of 42%.
`CCCCOC(=O)/C=C/c1ccc(N2C(=O)c3ccccc3C2=O)cc1` registered an inhibition at 100 µM in test [1] of 35%.
`O=C1c2ccccc2C(=O)N1c1cccc(C2CC=CO2)c1` (centres undefined): in test [1], the inhibition at 100 µM stood at 50%.
`O=C1c2ccccc2C(=O)N1c1ccc(I)cc1`: in test [1], the inhibition at 100 µM came to 36%.
The same measure, in the same setting: with `CCCCO/C=C/c1cccc2c1C(=O)N(C1CCC(=O)NC1=O)C2=O` (centres undefined) the figure was 47%; with `O=C1C=C(c2ccc3c(c2)C(=O)N(C2CCC(=O)NC2=O)C3=O)CCC1` (centres undefined), 35%.
In turn, `O=C1C=C(c2cccc(N3C(=O)c4ccccc4C3=O)c2)CCC1` came in with an inhibition at 100 µM in test [1] of 47%.
Still for that read-out and setting: with `O=C1CCC(N2C(=O)c3cccc(/C=C/N4CCCC4=O)c3C2=O)C(=O)N1` (centres undefined) the figure was 38%; with `CCCCO/C=C/c1ccccc1N1C(=O)c2ccccc2C1=O`, 47%.
For `O=C1c2ccccc2C(=O)N1c1ccccc1I`, in test [1], the inhibition at 100 µM turned out to be 40%.
In test [1], `CCCCOC(=O)/C=C/c1ccccc1N1C(=O)c2ccccc2C1=O` returned an inhibition at 100 µM of 52%.
Regarding `CCCCO/C=C/c1ccc(N2C(=O)c3ccccc3C2=O)cc1`, in test [1], the inhibition at 100 µM turned out to be 48%.
As to `O=C1CCC(N2C(=O)c3cccc(C4CC=CO4)c3C2=O)C(=O)N1` (centres undefined), at 100 µM the inhibition in test [1] was 50%.
For `O=C1CCC(N2C(=O)c3cccc(I)c3C2=O)C(=O)N1` (centres undefined), 100 µM produced 37% inhibition in test [1].
`CCCCO/C=C/c1cccc(N2C(=O)c3ccccc3C2=O)c1`: in test [1], the inhibition at 100 µM is 49%.
For `CCCCOC(=O)/C=C/c1cccc2c1C(=O)N(C1CCC(=O)NC1=O)C2=O` (centres undefined), the inhibition at 100 µM in test [1] was 44%.
Take `COC(=O)/C=C/c1cccc2c1C(=O)N(C1CCC(=O)NC1=O)C2=O` (centres undefined): the inhibition at 100 µM in test [1] amounted to 40%.
Same read-out and setting: for `O=C1CCC(N2C(=O)c3ccc(/C=C/N4CCCC4=O)cc3C2=O)C(=O)N1` (centres undefined) the value was 36%; for `O=C1CCCN1/C=C/c1cccc(N2C(=O)c3ccccc3C2=O)c1`, 36%.
`O=C1c2ccccc2C(=O)N1c1cccc(I)c1`: 100 µM produced 37% inhibition in test [1].
The compound `O=C1CCC(N2C(=O)c3ccc(/C=C/C4CC=CO4)cc3C2=O)C(=O)N1` (centres undefined) yielded an inhibition at 100 µM in test [1] of 40%.
On to `O=C1c2ccccc2C(=O)N1c1ccc(C2CC=CO2)cc1` (centres undefined), for which testing at 100 µM in test [1] gave an inhibition of 38%.
Consider `CCCCO/C=C/c1ccc2c(c1)C(=O)N(C1CCC(=O)NC1=O)C2=O` (centres undefined), for which, in test [1], the inhibition at 100 µM amounted to 69%. For the same compound, the outcome in test [2] and in test [7] was Active. In addition, the Activity entry in test [3] was “Dose-dependent effect”; in test [6], 100%. In test [4], testing at 1 µM gave an inhibition of 32%. This compound also came in with an inhibition at 10 µM in test [5] of 52%.
In test [1], `COC(=O)/C=C/c1cccc(N2C(=O)c3ccccc3C2=O)c1` had an inhibition at 100 µM of 44%.
Consider `O=C1CCC(N2C(=O)c3ccccc3C2=O)C(=O)N1` (centres undefined) [THALIDOMIDE], for which the inhibition at 100 µM in test [1] is 38%. Moreover, the inhibition at 1 µM in test [4] is 31%. This compound returned an inhibition at 10 µM in test [5] of 35%.
